# Measurements from article PMC12652692, “Synthesis and In Vitro Anticancer Evaluation of Novel Phosphonium Derivatives of Chrysin” (International Journal of Molecular Sciences, 2025).
# Columns and labels:
# Test in all cases: NCI60 one-dose screen
# HOP-92 = assay type: cell-based, human; conditions: HOP-92, 10 μM
# Experimental: (§1) The screening results are presented in the Supplementary Materials (Table S1), where the cytotoxicity was determined for the 10 µM concentration. […] The negative numbers indicate significant decreases in the cell number. […] Compared to the reference chrysin (2), all phosphonium hybrids (3a–h) had significant antiproliferative activities. […] At the same time, it should be noted that more than 60% average reduction was also obtained in the case of the other examined conjugates (3a–h).
# (§2) A detailed description of the NCI screening procedures, including the one-dose and five-dose tests, can be found in the Supplementary Materials, on the website of NCI [39], and in our previous work.
# (§3) A detailed description of the NCI screening procedures can also be found on the website of NCI [39], and in our […]
# (§4) All candidates were examined at first at a single high dose (10 μM) in the full NCI60 cell panel. The value reported for the one-dose test is growth relative to the no-drug control and relative to the time zero number of cells. This made possible the disclosure of both growth inhibition (numbers between 0 and 100) and lethality (numbers less than 0). For example, a value of 100 means no growth inhibition. A value of 20 would mean 80% growth inhibition. A value of 0 means no net growth over the course of the analysis. A value of −20 would mean 20% lethality. A value of −100 means all cells are dead. […]
# (§5) concentration levels. The human tumor cell lines of the cancer screening panel were grown in RPMI 1640 medium containing 5% fetal bovine serum and 2 mM l-glutamine. Characteristically, cells were injected in 96-well microtiter plates in 0.1 mL at plating densities ranging from 5000 to 40,000 cells/well, depending on the doubling time of individual cell lines. After cell inoculation, the microtiter plates were incubated at 37 °C, 5% carbon dioxide, 95% air, and 100% relative humidity for 24 hours before the addition of tested compounds. After 24 hours, 2 plates of each cell line were fixed in situ with Cl3COOH (TCA), to represent a measurement of the cell population for each cell line at the time of drug addition (tz). Tested compounds were solubilized in DMSO at 400-fold the desired final maximum test concentration and stored frozen before application. In the course of the drug addition, an aliquot of frozen concentrate was thawed and diluted to twice the desired final maximum test concentration with a complete medium containing 50 μg mL−1 gentamicin. Additional four, 10-fold or ½ log serial dilutions were produced to furnish a total of five drug concentrations plus control. Aliquots of 0.1 mL of these different drug dilutions were added to the appropriate microtiter wells already containing 0.1 mL of medium, resulting in the required final drug concentrations.
# (§6) Following drug addition, the plates were incubated at 37 °C, 5% carbon dioxide, 95% air, and 100% relative humidity for an additional 48 hours. For adherent cells, the test was finished by the addition of cold Cl3COOH. Cells were fixed in situ by the addition of 50 μL of cold 50% (w/v) Cl3COOH, and incubated at 4 °C for 1 hour. The supernatant was discarded, and the plates were washed with H2O (5×) and dried in air. Sulforhodamine B (SRB) solution (0.1 mL) at 0.4% (w/v) in 1% CH3COOH was added to each well, and plates were incubated at RT for 10 min. After staining, the unbound dye was removed by washing five times with 1% CH3COOH, and the plates were dried in the air. The bound stain is afterward solubilized with a 10 mM trizma base, and the absorbance is read on an automated plate reader at λ = 515 nm. Utilizing the seven absorbance measurements [time zero (tz), control growth (c), and test growth in the presence of the drug at the five concentration levels (ti)], the percentage growth was determined at each of the drug concentration levels. Growth inhibition (%) was calculated as:
# (§7) [(ti − tz)/(c − tz)] × 100, for concentrations where ti ≥ tz (1) […]
# T-47D = assay type: cell-based, human; conditions: 10 μM
# Experimental: as §1, §2, §3, §4, §5, §6, §7
# PC-3 = assay type: cell-based, human; conditions: PC-3, 10 μM
# Experimental: as §1, §2, §3, §4, §5, §6, §7
# SR = assay type: cell-based, human; conditions: 10 μM
# Experimental: as §1, §2, §3, §4, §5, §6, §7
# UACC-62 = assay type: cell-based, human; conditions: UACC-62, 10 μM
# Experimental: as §1, §2, §3, §4, §5, §6, §7
# SNB-19 = assay type: cell-based; conditions: Homo sapiens; SNB-19, 10 μM; read-out: Growth percent
# Experimental: as §1, §2, §3, §4, §5, §6, §7
# CAKI-1 = assay type: cell-based; conditions: Homo sapiens; CAKI-1, 10 μM; read-out: Growth percent
# Experimental: as §1, §2, §3, §4, §5, §6, §7
# ACHN = assay type: cell-based; conditions: Homo sapiens, read-out: Growth percent
# Experimental: as §1, §2, §3, §4, §5, §6, §7
# SK-MEL-5 = assay type: cell-based; conditions: Homo sapiens; SK-MEL-5, 10 μM; read-out: Growth percent
# Experimental: as §1, §2, §3, §4, §5, §6, §7
# SF-295 = assay type: cell-based; conditions: Homo sapiens; SF-295, 10 μM; read-out: Growth percent
# Experimental: as §1, §2, §3, §4, §5, §6, §7
# HS 578T = assay type: cell-based; conditions: Homo sapiens, read-out: Growth percent
# Experimental: as §1, §2, §3, §4, §5, §6, §7
# HCC-2998 = assay type: cell-based; conditions: Homo sapiens; HCC-2998, 10 μM; read-out: Growth percent
# Experimental: as §1, §2, §3, §4, §5, §6, §7
# SNB-75 = assay type: cell-based; conditions: Homo sapiens; SNB-75, 10 μM; read-out: Growth percent
# Experimental: as §1, §2, §3, §4, §5, §6, §7
# RXF 393 = assay type: cell-based; conditions: Homo sapiens; RXF 393, 10 μM; read-out: Growth percent
# Experimental: as §1, §2, §3, §4, §5, §6, §7
# SF-539 = assay type: cell-based; conditions: Homo sapiens; SF-539, 10 μM; read-out: Growth percent
# Experimental: as §1, §2, §3, §4, §5, §6, §7
# RPMI-8226 = assay type: cell-based; conditions: Homo sapiens; RPMI-8226, 10 μM; read-out: Growth percent
# Experimental: as §1, §2, §3, §4, §5, §6, §7
# NCI-H23 = assay type: cell-based; conditions: Homo sapiens; NCI-H23, 10 μM; read-out: Growth percent
# Experimental: as §1, §2, §3, §4, §5, §6, §7
# OVCAR-8 = assay type: cell-based; conditions: Homo sapiens; OVCAR-8, 10 μM; read-out: Growth percent
# Experimental: as §1, §2, §3, §4, §5, §6, §7
# SW-620 = assay type: cell-based; conditions: Homo sapiens; SW-620, 10 μM; read-out: Growth percent
# Experimental: as §1, §2, §3, §4, §5, §6, §7
# OVCAR-4 = assay type: cell-based; conditions: Homo sapiens; OVCAR-4, 10 μM; read-out: Growth percent
# Experimental: as §1, §2, §3, §4, §5, §6, §7
# NCI-H460 = assay type: cell-based; conditions: Homo sapiens; NCI-H460, 10 μM; read-out: Growth percent
# Experimental: as §1, §2, §3, §4, §5, §6, §7
smiles,measurement,setting,value
"O=c1cc(-c2ccccc2)oc2cc(O)cc(O)c12 [compound 2, 5,7-dihydroxyflavone, reference compound]",Growth percent,HOP-92,77.93%
same,Growth percent,T-47D,101.44%
same,Growth percent,PC-3,93.17%
same,Growth percent,SR,77.87%
same,Growth percent,UACC-62,82.24%
same,activity at 10 µM,SNB-19,86%
same,activity at 10 µM,CAKI-1,83.6%
same,activity at 10 µM,ACHN,85%
same,activity at 10 µM,SK-MEL-5,92.8%
same,activity at 10 µM,SF-295,99.9%
same,activity at 10 µM,HS 578T,92.5%
same,activity at 10 µM,HCC-2998,103%
same,activity at 10 µM,SNB-75,89%
same,activity at 10 µM,RXF 393,91.2%
same,activity at 10 µM,SF-539,92.2%
same,activity at 10 µM,RPMI-8226,101%
same,activity at 10 µM,NCI-H23,92.6%
same,activity at 10 µM,OVCAR-8,95.2%
same,activity at 10 µM,SW-620,102%
same,activity at 10 µM,OVCAR-4,112%
same,activity at 10 µM,NCI-H460,98.3%
